Activity calls are given as the source filed them.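 How the source made its calls: active means at least 70% inhibition of the phosphatase PP5 at 50 µM; inactive means inhibition below 70% at 50 µM.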
target: Serine/threonine-protein phosphatase 5 (Homo sapiens) (UniProt P53041); assay: PP5 phosphatase inhibitors at single dose, late-stage follow-up, selectivity assay for PP1 inhibitor project, biochemical, fluorescence, OMFP substrate, powder samples (AID 652224); settings: purified PP5c, OMFP dephosphorylation fluorescence; at 50 µM; active compounds read high
Sequence (P53041 whole entry, looked up): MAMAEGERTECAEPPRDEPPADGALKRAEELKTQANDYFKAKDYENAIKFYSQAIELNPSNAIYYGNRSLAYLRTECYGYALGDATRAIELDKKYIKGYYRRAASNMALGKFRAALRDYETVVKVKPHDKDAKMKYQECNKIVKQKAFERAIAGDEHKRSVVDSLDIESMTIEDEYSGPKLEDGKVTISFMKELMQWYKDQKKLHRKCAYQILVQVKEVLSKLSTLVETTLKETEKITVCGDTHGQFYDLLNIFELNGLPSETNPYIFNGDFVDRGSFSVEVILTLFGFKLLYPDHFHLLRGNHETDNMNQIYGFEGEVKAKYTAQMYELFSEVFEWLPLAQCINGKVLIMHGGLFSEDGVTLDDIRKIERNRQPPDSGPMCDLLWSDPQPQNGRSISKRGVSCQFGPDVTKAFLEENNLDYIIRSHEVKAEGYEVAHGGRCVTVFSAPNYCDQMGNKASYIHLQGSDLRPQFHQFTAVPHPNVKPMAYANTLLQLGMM

Compound	inhibition
Cc1cccnc1C(c1ccc2cccnc2c1O)N1CCN(C)CC1 (stereo unspecified)	66.1% (inactive)
CN1CCN(C(c2ccc3cccnc3c2O)c2ncccc2C(F)(F)F)CC1 (stereo unspecified)	29.4% (inactive)
CN1CCN(C(c2nccs2)c2cc(Cl)c3cccnc3c2O)CC1 (stereo unspecified)	35% (inactive)
COc1cccc(C(c2ccc3cccnc3c2O)N2CCN(C)CC2)n1 (stereo unspecified)	-1.09% (inactive)
CN1CCN(C(c2cccs2)c2cc(Cl)c3cccnc3c2O)CC1 (stereo unspecified)	24.7% (inactive)
CN1CCN(C(c2ccncc2)c2cc(Cl)c3cccnc3c2O)CC1 (stereo unspecified)	9.09% (inactive)
Cc1ccnc(C(c2ccc3cccnc3c2O)N2CCN(C)CC2)c1 (stereo unspecified)	54.8% (inactive)
CN1CCN(C(c2ccc(C(F)(F)F)cn2)c2ccc3cccnc3c2O)CC1 (stereo unspecified)	61.9% (inactive)
Oc1c(C(c2ccccn2)N2CCN(c3ccccc3F)CC2)cc(Cl)c2cccnc12 (stereo unspecified)	27% (inactive)
Oc1c(CN2CCN(c3ccccc3)CC2)cc(Cl)c2cccnc12	21.3% (inactive)
CN1CCN(C(c2ccccn2)c2cc(Cl)c3ccccc3c2O)CC1 (stereo unspecified)	12.1% (inactive)
COc1ccnc(C(c2ccc3cccnc3c2O)N2CCN(C)CC2)c1 (stereo unspecified)	58.8% (inactive)
COc1ccc(C(c2ccc3cccnc3c2O)N2CCN(C)CC2)nc1 (stereo unspecified)	48.5% (inactive)
CCN1CCN(C(c2ccccn2)c2cc(Cl)c3cccnc3c2O)CC1 (stereo unspecified)	67.9% (inactive)
CN1CCN(C(c2ccccc2)c2cc(Cl)c3cccnc3c2O)CC1 (stereo unspecified)	15.5% (inactive)
Oc1c(C(c2ccccn2)N2CCOCC2)cc(Cl)c2cccnc12 (stereo unspecified)	72.5%
Oc1c(C(NC2CCCCC2)c2ccccn2)ccc2cccnc12 (stereo unspecified)	36.3% (inactive)
CN1CCN(C(c2ccccn2)c2cc(Cl)c3cccnc3c2O)CC1 (stereo unspecified)	75.8%

Compound	inhibition
CN1CCN(C(c2ccccn2)c2cc(Cl)ccc2O)CC1 (stereo unspecified)	4.27% (inactive)
CC(C)(C)OC(=O)N1CCN(C(c2ccccn2)c2cc(Cl)c3cccnc3c2O)CC1 (stereo unspecified)	37.1% (inactive)
Oc1c(C(c2ccccn2)N2CCNCC2)cc(Cl)c2cccnc12 (stereo unspecified)	14.4% (inactive)
CN1CCN(C(c2ncccn2)c2ccc3cccnc3c2O)CC1 (stereo unspecified)	-0.77% (inactive)
Oc1c(Cc2ccccn2)ccc2cccnc12	27% (inactive)
CN1CCC(NC(c2ccccn2)c2ccc3cccnc3c2O)CC1 (stereo unspecified)	9.57% (inactive)
Cc1ccc2ccc(C(c3ccccn3)N3CCN(C)CC3)c(O)c2n1 (stereo unspecified)	24.3% (inactive)
CCOC(c1ccccn1)c1cc(Cl)c2cccnc2c1O (stereo unspecified)	21.5% (inactive)
Cc1cccc(C(c2ccc3cccnc3c2O)N2CCN(C)CC2)n1 (stereo unspecified)	-2.26% (inactive)
Oc1c(CN2CCN(c3ccccn3)CC2)cc(Cl)c2cccnc12	32.4% (inactive)
CN1CCN(C(c2cccnc2)c2cc(Cl)c3cccnc3c2O)CC1 (stereo unspecified)	9.84% (inactive)
COCOc1c(C(c2ccccn2)N2CCN(C)CC2)ccc2cccnc12 (stereo unspecified)	-6.11% (inactive)
CN1CCN(C(c2ccccn2)c2ccc3cccnc3c2O)CC1 (stereo unspecified)	49.2% (inactive)
CC1CCN(C(c2ccccn2)c2cc(Cl)c3cccnc3c2O)CC1 (stereo unspecified)	68.5% (inactive)
Oc1c(C(c2ccccn2)N2CCCC2)ccc2cccnc12 (stereo unspecified)	45.2% (inactive)
Cc1ccc(C(c2ccc3cccnc3c2O)N2CCN(C)CC2)nc1 (stereo unspecified)	66.2% (inactive)
Oc1c(C(c2ccccn2)N2CCC(Cc3ccccc3)CC2)cc(Cl)c2cccnc12 (stereo unspecified)	24.6% (inactive)
CN1CCN(Cc2cc(Cl)c3cccnc3c2O)CC1	20.1% (inactive)

— PubChem BioAssay AID652224 (The Scripps Research Institute Molecular Screening Center, 2013)
